One data set relates to dog. The settings on record: Torres-Arrault et al. 1984, cited from earlier work.
The conditions of data set [1]: administered intravenously; cited from earlier work.

With `CCCCCCCC/C=C\CCCCCCCC(=O)OCCOCC(OCCO)C1OCC(OCCO)C1OCCO` (stereo not shown) [Tween-80, polysorbate 80], the cardiac depressant effect result in the data set with dog was “potent cardiac depressant”. Besides, in the data set on dog (dog), the hypotension result is recorded as “causes hypotension”.
With `CCCCc1oc2ccccc2c1C(=O)c1cc(I)c(OCCN(CC)CC)c(I)c1` [amiodarone, 2-n-butyl-3-(3,5-diiodo-4-β-N-diethylaminoethoxy-benzoyl)benzofuran], in the data set on Coronary Occlusion (Rat), the “dose-dependent suppression of arrhythmias compared with the saline control group” value is reported as “significantly different”. The “onset of action and hemodynamic and electrophysiological effect” value in data set [1] was “rapid onset of action causing profound hemodynamic and electrophysiological effect”.

Source of the values: patent US8664267B2 (Academic Pharmaceuticals Incorporated, priority 2007, dated 2014).
